Structures are written as SMILES.

In this assay the test system is AMP-activated protein kinase (AMPK). Nature of the assay: ADP Quest assay for AMPK activators. It is filed as biochemical. Further details: key: fold AMPK activation at 30 μM activator vs none. The settings on record: fold of AMPK activation to phosphorylate SAMS peptide without and with an activator at the concentration of 30 μM. The procedure: This method evaluates AMP-activated protein kinase (AMPK) activity through detecting the accumulation of ADP product using an ADP Quest kit and determining the E30 values of the small molecular AMPK activators. ADP Quest kit (DiscoveRx, Fremont, Calif.) is stored at −20° C. before use. Before an experiment, thaw the kit (include assay buffer, ADP standard solution, reagent A and reagent B) and equilibrate to room temperature. Dispense the ADP Quest reagents into single-use aliquots and store at −20° C. The compound concentrations typically range from 0 μM to 100 μM by 2-fold dilution. AMP concentrations range from 0.98 μM to 1 mM as the reference control. In an assay, thaw and equilibrate the assay buffer, reagent A and reagent B to room temperature for 30 minutes prior to use. Mix ATP, SAMS peptide substrate and compound, and place them into the 384-well assay plate. Add reagent A and B based on the assay kit protocol. Incubate the assay plate at room temperature for 30 minutes after addition the mixture followed by the addition of AMPK protein (Invitrogen, CA) to initiate the AMPK phosphorylation reaction. At the same time, reactions with AMPK activator AMP in the absence of enzyme is included as blank control. The reaction fluorescence signal is monitored and recorded on Envision in kinetic mode with the excitation wavelength of 530 nm and emission wavelength of 590 nm. The E30 value, defined as the fold of AMPK activation to phosphorylate SAMS peptide without and with an activator at the concentration of 30 μM, is calculated and analyzed using Prism 5.0.
`CC(C)(Nc1cccc(C2CC(C)(C)c3cc(Cl)ccc3N2)c1)C(=O)O` (stereo not shown) [Example 1, 2-[3-(6-Chloro-4,4-dimethyl-1,2,3,4-tetrahydro-quinolin-2-yl)-phenylamino]-2-methyl-propionic acid]: the E30 worked out at 3.30.
The compound `CC1(C)CC(c2cccc(NC3(C(=O)O)CC3)c2)Nc2ccc(Cl)cc21` (stereo not shown) [Example-2, 1-[3-(6-Chloro-4,4-dimethyl-1,2,3,4-tetrahydro-quinolin-2-yl)-phenylamino]-cyclopropanecarboxylic acid] displayed an E30 of 2.63.
The value for `CC(C)(Nc1cccc(C2CC(C)(C)c3cc(C#N)ccc3N2)c1)C(=O)O` (stereo not shown) [Example-3, 2-[3-(6-Cyano-4,4-dimethyl-1,2,3,4-tetrahydro-quinolin-2-yl)-phenylamino]-2-methyl-propionic acid] was 2.88; that for `CC1(C)CC(c2cccc(NC3(C(=O)O)CC3)c2)Nc2ccc(C#N)cc21` (stereo not shown) [Example-4, 1-[3-(6-Cyano-4,4-dimethyl-1,2,3,4-tetrahydro-quinolin-2-yl)-phenylamino]-cyclopropanecarboxylic acid] was 2.43.
`CC1(C)CC(c2cccc(NC3(C(=O)O)CC3)c2)Nc2c(C(=O)O)cccc21` (stereo not shown) [Example-5, 2-[3-(1-Carboxy-cyclopropylamino)-phenyl]-4,4-dimethyl-1,2,3,4-tetrahydro-quinoline-8-carboxylic acid] yielded an E30 of 2.44.
As for `CC1(C)CC(c2cccc(NC3(C(=O)O)CC3)c2)Nc2c(C(=O)O)cc(Cl)cc21` (stereo not shown) [Example-6, 2-[3-(1-Carboxy-cyclopropylamino)-phenyl]-6-chloro-4,4-dimethyl-1,2,3,4-tetrahydro-quinoline-8-carboxylic acid], the E30 came out at 2.72.
Compound `CC(C)(Nc1cccc(C2CC(C)(C)c3cc(Cl)cc(C(=O)O)c3N2)c1)C(=O)O` (stereo not shown) [Example-7, 2-[3-(1-Carboxy-1-methyl-ethylamino)-phenyl]-6-chloro-4,4-dimethyl-1,2,3,4-tetrahydro-quinoline-8-carboxylic acid] had an E30 of 2.27.
Next, `Cc1cc(C#N)cc2c1NC(c1cccc(NC3(C(=O)O)CC3)c1)CC2(C)C` (stereo not shown) [Example-8, 1-[3-(6-Cyano-4,4,8-trimethyl-1,2,3,4-tetrahydro-quinolin-2-yl)-phenylamino]-cyclopropanecarboxylic acid]: 1.68; `CC(C)(Nc1cccc(C2CC(C)(C)c3cc(C(F)(F)F)ccc3N2)c1)C(=O)O` (stereo not shown) [Example-9, 2-[3-(4,4-Dimethyl-6-trifluoromethyl-1,2,3,4-tetrahydro-quinolin-2-yl)-phenylamino]-2-methyl-propionic acid]: 2.34.
In the case of `CC1(C)CC(c2ccccc2NS(C)(=O)=O)Nc2ccc(Cl)cc21` (stereo not shown) [Example-10, N-[2-(6-Chloro-4,4-dimethyl-1,2,3,4-tetrahydro-quinolin-2-yl)-phenyl]-methanesulfonamide], the E30 is recorded as 1.70.
The value for `CN1c2ccc(C(F)(F)F)cc2C(C)(C)CC1c1cccc(NC(C)(C)C(=O)O)c1` (stereo not shown) [Example-11, 2-Methyl-2-[3-(1,4,4-trimethyl-6-trifluoromethyl-1,2,3,4-tetrahydro-quinolin-2-yl)-phenylamino]-propionic acid] was 2.48; that for `Cc1cc(C#N)cc2c1NC(c1cccc(NC(C)(C)C(=O)O)c1)CC2(C)C` (stereo not shown) [Example-12, 2-[3-(6-Cyano-4,4,8-trimethyl-1,2,3,4-tetrahydro-quinolin-2-yl)-phenylamino]-2-methyl-propionic acid] was 2.37; that for `CN1c2ccc(C(F)(F)F)cc2C(C)(C)CC1c1cccc(NC2(C(=O)O)CC2)c1` (stereo not shown) [Example-13, 1-[3-(1,4,4-Trimethyl-6-trifluoromethyl-1,2,3,4-tetrahydro-quinolin-2-yl)-phenylamino]-cyclopropanecarboxylic acid] was 2.08.
The compound `CC1(C)CC(c2ccccc2NS(=O)(=O)c2cccc(F)c2)Nc2ccc(Cl)cc21` (stereo not shown) [Example-14, N-[2-(6-Chloro-4,4-dimethyl-1,2,3,4-tetrahydro-quinolin-2-yl)-phenyl]-3-fluoro-benzenesulfonamide] yielded an E30 of 1.78.
The compound `CC(C)(Nc1cccc(C2CC(C)(C)c3cccc(C(=O)O)c3N2)c1)C(=O)O` (stereo not shown) [Example-15, 2-[3-(1-Carboxy-1-methyl-ethylamino)-phenyl]-4,4-dimethyl-1,2,3,4-tetrahydro-quinoline-8-carboxylic acid] came in with an E30 of 1.88.
Next, `CCS(=O)(=O)Nc1ccccc1C1CC(C)(C)c2cc(Cl)ccc2N1` (stereo not shown) [Example-16, Ethanesulfonic acid [2-(6-chloro-4,4-dimethyl-1,2,3,4-tetrahydro-quinolin-2-yl)-phenyl]-amide]: 1.89; `CC1(C)CC(c2cccc(NC3(C(=O)O)CC3)c2)Nc2ccc(C(F)(F)F)cc21` (stereo not shown) [Example-17, 1-[3-(4,4-Dimethyl-6-trifluoromethyl-1,2,3,4-tetrahydro-quinolin-2-yl)-phenylamino]-cyclopropanecarboxylic acid]: 1.91; `CC1(C)CC(c2cccc(NC3(C(=O)O)CC3)c2)Nc2c(Cl)cc(C#N)cc21` (stereo not shown) [Example-18, 1-[3-(8-Chloro-6-cyano-4,4-dimethyl-1,2,3,4-tetrahydro-quinolin-2-yl)-phenylamino]-cyclopropanecarboxylic acid]: 1.79.
Next, `CC1(C)CC(c2ccccc2NS(=O)(=O)c2ccc(F)cc2)Nc2ccc(Cl)cc21` (stereo not shown) [Example-19, N-[2-(6-Chloro-4,4-dimethyl-1,2,3,4-tetrahydro-quinolin-2-yl)-phenyl]-4-fluoro-benzenesulfonamide]: 1.64; `CC(C)(Nc1ccccc1C1CC(C)(C)c2cc(C#N)ccc2N1)C(=O)O` (stereo not shown) [Example-20, 2-[2-(6-Cyano-4,4-dimethyl-1,2,3,4-tetrahydro-quinolin-2-yl)-phenylamino]-2-methyl-propionic acid]: 1.57.
Next, `CC1(C)CC(c2ccccc2NS(=O)(=O)c2ccccc2F)Nc2ccc(Cl)cc21` (stereo not shown) [Example-21, N-[2-(6-Chloro-4,4-dimethyl-1,2,3,4-tetrahydro-quinolin-2-yl)-phenyl]-2-fluoro-benzenesulfonamide]: 1.75; `CC1(C)CC(c2ccccc2NC2(C(=O)O)CC2)Nc2ccc(Cl)cc21` (stereo not shown) [Example-22, 1-[2-(6-Chloro-4,4-dimethyl-1,2,3,4-tetrahydro-quinolin-2-yl)-phenylamino]-cyclopropanecarboxylic acid]: 1.40; `CC1(C)CC(c2ccccc2NS(C)(=O)=O)Nc2ccc(C#N)cc21` (stereo not shown) [Example-23, N-[2-(6-Cyano-4,4-dimethyl-1,2,3,4-tetrahydro-quinolin-2-yl)-phenyl]-methanesulfonamide]: 1.14.
With `CN1c2ccc(C#N)cc2C(C)(C)CC1c1cccc(NC(C)(C)C(=O)O)c1` (stereo not shown) [Example-24, 2-[3-(6-Cyano-1,4,4-trimethyl-1,2,3,4-tetrahydro-quinolin-2-yl)-phenylamino]-2-methyl-propionic acid], the E30 is listed as 3.22.
On to `CC1(C)CC(c2ccccc2NC2(C(=O)O)CC2)Nc2ccc(C#N)cc21` (stereo not shown) [Example-25, 1-[2-(6-Cyano-4,4-dimethyl-1,2,3,4-tetrahydro-quinolin-2-yl)-phenylamino]-cyclopropanecarboxylic acid], for which the E30 is 2.02.
The value for `CC(C)(Nc1ccccc1C1CC(C)(C)c2cc(Cl)ccc2N1)C(=O)O` (stereo not shown) [Example-26, 2-[2-(6-Chloro-4,4-dimethyl-1,2,3,4-tetrahydro-quinolin-2-yl)-phenylamino]-2-methyl-propionic acid] was 1.26.
Next, `CN1c2ccc(C#N)cc2C(C)(C)CC1c1cccc(NC2(C(=O)O)CC2)c1` (stereo not shown) [Example-28, 1-[3-(6-Cyano-1,4,4-trimethyl-1,2,3,4-tetrahydro-quinolin-2-yl)-phenylamino]-cyclopropanecarboxylic acid]: 2.46; `CC(C)(Nc1cccc(C2CC(C)(C)c3cc(C#N)cc(Cl)c3N2)c1)C(=O)O` (stereo not shown) [Example-29, 2-[3-(8-Chloro-6-cyano-4,4-dimethyl-1,2,3,4-tetrahydro-quinolin-2-yl)-phenylamino]-2-methyl-propionic acid]: 2.70; `Cc1cc(F)cc2c1NC(c1cccc(NC(C)(C)C(=O)O)c1)CC2(C)C` (stereo not shown) [Example-31, 2-[3-(6-Fluoro-4,4,8-trimethyl-1,2,3,4-tetrahydro-quinolin-2-yl)-phenylamino]-2-methyl-propionic acid]: 2.16.
The compound `CC1(C)CC(c2ccccc2NC(=O)c2ccc(F)cc2)Nc2ccc(C(=O)O)cc21` (stereo not shown) [Example-32, 2-[2-(4-Fluoro-benzoylamino)-phenyl]-4,4-dimethyl-1,2,3,4-tetrahydro-quinoline-6-carboxylic acid] returned an E30 of 1.31.
Take `CCS(=O)(=O)Nc1ccccc1C1CC(C)(C)c2cc(C(=O)O)ccc2N1` (stereo not shown) [Example-33, 2-(2-Ethanesulfonylamino-phenyl)-4,4-dimethyl-1,2,3,4-tetrahydro-quinoline-6-carboxylic acid]: the E30 stood at 2.13.

Source of the values: US8546427B2, “Tetrahydroquinoline derivatives” (Hoffmann-La Roche Inc., priority 2010, dated 2013).
